Data set [1] has as its system CV-1 cells. Conditions: African green monkey.
Data set [2] deals with RK44.20 cells. The following applies: rabbit.
Data set [3] concerns cowpox virus. The following applies: mouse, in vivo; cited from earlier work.
Data set [4] relates to cowpox virus. Conditions: mouse, in vivo; cited from earlier work. This is another data set of the same source.

Turning to `Cc1cn([C@H]2C[C@H](N=[N+]=[N-])[C@@H](CO)O2)c(=O)[nH]c1=O` [AZT, 3′-azido-2′,3′-dideoxythymidine], the “AZT concentration with toxic effect on cells” value in data set [1] and in data set [2] was above 1.5 mg/mL each time.

For the compound `Nc1ccn(C[C@@H](CO)OCP(=O)(O)O)c(=O)n1` [Cidofovir], the effect on death entry in data set [3] was “only delayed but did not prevent death”. In addition, the effect on mortality result in data set [4] is recorded as “reduce mortality”.
